Literature values, collected in patent US10849879B2, “Localized modulation of tissues and cells to enhance therapeutic effects including renal denervation” (Mercator MedSystems, Inc., priority 2011, dated 2020).
Several values for one entry are separate records, joined by “and”; a condition that tells them apart may be missing. Equal values may be shown once.

System: axon

## (2-(Hexahydro-1(2H)-azocinyl)ethyl)guanidine sulfate (1:1) [guanethidine monosulfate]
  concentrations producing axon retraction in vitro: ≥ 0.2 mM and ≥ 60 μg/mL
